From US12576047B2, “Telomerase activating compounds for use in fertility and related applications” (Neuromagen Pharma Ltd, priority 2017, dated 2026)
Entries after “also recorded” stand apart in the source; their conditions may differ.

Assays:
telomerase = biological target: T1, telomerase (Rattus norvegicus, UniProt Q673L6); assay: TRAP assay of telomerase activity in granulosa cells; type: cell-based; details: 50 nM and 200 nM for 6 hours
T1 construct: Protein extracts prepared from these cells served for telomerase activity measurement; endogenous in cells; host or cells: immortalized rat granulosa cells expressing FSH receptor
Procedure: (§1) Immortalized rat granulosa cells expressing FSH receptor were treated with either pregnant mare serum gonadotropin (PMSG), or the indicated compounds, or both for 6 hours. Protein extracts prepared from these cells served for telomerase activity measurement using a telomere repeat amplification protocol (TRAP) assay.
(§2) Briefly, protein extract incubated with oligonucleotide, which serves as a template for telomerase (TS), for 45 minutes at 30° C. followed by PCR with reverse primer (ACX) and internal control. PCR products were separated on 4.5% agarose gel. RNA extracts were used for cDNA synthesis and quantitative real time PCR with specific primers to Telomerase reverse transcriptase (TERT), Steroidogenic acute regulatory protein (StAr) and β-actin as a reference gene. To measure progesterone levels secreted by the cells, granulosa cells were cultured with or without 1 IU/mL PMSG and DMSO, Compound 79 50 nM or compound 70 50 nM in the presence of 100 nM dexamethasone. After 24 hours progesterone levels cell-culture medium were determined by radioimmunoassay (RIA). For cell proliferation measurement, 1×10^5 cells were seeded in a 96 wells plate with 1 IU/mL PMSG and DMSO, Compound 79 50 nM or Compound 70 50 nM. After 24 hours cells viability was measured by XTT proliferation assay.

[1] = test system: Telomerase reverse transcriptase (TERT); assay: TERT relative mRNA levels by qRT-PCR in granulosa cells; type: cell-based, rat; details: 50 nM and 200 nM for 6 hours
Procedure: as §1, §2

[2] = test system: Steroidogenic acute regulatory protein (StAr); assay: StAr relative mRNA levels by qRT-PCR in granulosa cells; type: cell-based, rat; details: 50 nM for 6 hours
Procedure: as §1, §2

mouse ovary = assay: Hematoxylin-eosin histology of mouse ovary; type: in vivo
From the text: The ovaries were weighted; one was taken for protein extraction for measuring telomerase activity by TRAP assay, and the other one for the histological examination using hematoxylin-eosin staining of the ovary and its follicles.
The mice ovaries were removed and fixed with 4% paraformaldehyde overnight, dehydrated in increasing ethanol concentrations to xylene, and embedded in paraffin. A rotary microtome was used to produce 5 μm sections, which were mounted on Superfrost plus slides. The sections were dried and heated at 37° C. overnight and stored in dry place. Paraffin-embedded sections were deparaffinized in xylene and rehydrated in decreasing concentrations of ethanol. Then the sections stained with hematoxylin-eosin or subjected to immunochemical and Immunofluorescent assays [Liani-Leibson, K., I. Har-Vardi, and E. Priel, Inhibition of topoisomerase I by anti-cancer drug altered the endometrial cyclicity and receptivity. Curr Mol Med, 2014. 14(1): p. 141-50].

CREM = CREM expression in X-ray irradiated testis; type: in vivo, mouse; details: X-ray 2.5 Gy then injection, 12 hrs
Procedure: (§3) Toward this end, ICR mice (3 months old) were injected with 6 mg/kg of Compound 79, Compound 68 or Compound 70, or mice were subjected to X-ray radiation (2.5 Gy) followed by immediately injection of the respective compounds. Control mice were untreated or vehicle treated with or without exposure to X-ray radiation. The testes were removed 12 hrs after treatments and subjected to protein extracts or total RNA preparations for the examination of telomerase activity by TRAP assay, telomerase expression by Western blot and real time PCR. Testes were also taken for immunohistochemical and immunofluorescence analysis with various spermatogenesis markers. Epididymis was also taken for sperm count.

γ-H2AX = γ-H2AX immunofluorescence of testis; type: in vivo, mouse; details: 12 hrs
Procedure: as §3

ICR mice = assay: Sperm count from the epididymis, with or without X-ray radiation; type: in vivo, mouse
Procedure: as §3, with “The testes were removed 12 hrs after treatments and subjected to protein extracts or total RNA preparations for the examination of telomerase activity by TRAP assay, telomerase expression by Western blot and real time PCR.” left out

sperm = assay: Sperm head morphology after X-ray radiation; type: in vivo, mouse; details: X-ray 2.5 Gy, single S.C. injection 6 mg/kg, 12 hours
Procedure: Three-month old mice were irradiated with X-ray (2.5 Gy) and treated with a single S.C. injection of 6 mg/kg of compound 68 or 70. Mice were sacrificed 12 hours later and sperm were removed from the epididymis and stained with eosin. The number of morphologically defective sperm (head morphology) were quantified and presented as a percentage value of the total sperm count (N=6 mice per group) (FIG. 26A). FIG. 26B provides a light micrograph showing healthy and defective sperm head morphology observed. The arrows labeled 1 and 2 point to defective sperm head morphology, and the arrows labeled 3 and 4 point to healthy sperm head morphology

old mice (16 months old) = assay: Sperm count and motility in old mice; type: in vivo, mouse; details: single injection 6 mg/Kg
ovarian tissue = assay: Ovarian tissue histopathology following irradiation; type: in vivo; details: treatment following X-ray irradiation
From the text: FIGS. 28A, 28B and 28C: Ovarian tissue histopathology following irradiation (FIG. 28A), followed by treatment with Compound 70 (FIG. 28C) or DMSO carrier (FIG. 28B).

LH = LH expression by RT-PCR in pituitary gland cells; type: cell-based, mouse; details: 50 nM, 12 hours, vs untreated
Procedure: (§4) FIGS. 29A, 29B, 29C and 29D: The embodied compounds affect the expression of gonadotropin hormones in pituitary gland cells. Cells (L T2) derived from the mouse pituitary gland were assessed for their secretion of LH and FSH at 6 (FIGS. 29A and 29B) and 12 hours (FIGS. 29C and 29D) following treatment with the indicated embodied compounds (50 nM). FSH and LH expression was determined by RT-PCR, and quantified from 5 different experiments, as assessed for significance, using the t test, one way ANOVA.

FSH = FSH expression by RT-PCR in pituitary gland cells; type: cell-based, mouse; details: 50 nM, 6 hours, vs untreated
Procedure: as §4

T1 sequence (Q673L6 whole entry): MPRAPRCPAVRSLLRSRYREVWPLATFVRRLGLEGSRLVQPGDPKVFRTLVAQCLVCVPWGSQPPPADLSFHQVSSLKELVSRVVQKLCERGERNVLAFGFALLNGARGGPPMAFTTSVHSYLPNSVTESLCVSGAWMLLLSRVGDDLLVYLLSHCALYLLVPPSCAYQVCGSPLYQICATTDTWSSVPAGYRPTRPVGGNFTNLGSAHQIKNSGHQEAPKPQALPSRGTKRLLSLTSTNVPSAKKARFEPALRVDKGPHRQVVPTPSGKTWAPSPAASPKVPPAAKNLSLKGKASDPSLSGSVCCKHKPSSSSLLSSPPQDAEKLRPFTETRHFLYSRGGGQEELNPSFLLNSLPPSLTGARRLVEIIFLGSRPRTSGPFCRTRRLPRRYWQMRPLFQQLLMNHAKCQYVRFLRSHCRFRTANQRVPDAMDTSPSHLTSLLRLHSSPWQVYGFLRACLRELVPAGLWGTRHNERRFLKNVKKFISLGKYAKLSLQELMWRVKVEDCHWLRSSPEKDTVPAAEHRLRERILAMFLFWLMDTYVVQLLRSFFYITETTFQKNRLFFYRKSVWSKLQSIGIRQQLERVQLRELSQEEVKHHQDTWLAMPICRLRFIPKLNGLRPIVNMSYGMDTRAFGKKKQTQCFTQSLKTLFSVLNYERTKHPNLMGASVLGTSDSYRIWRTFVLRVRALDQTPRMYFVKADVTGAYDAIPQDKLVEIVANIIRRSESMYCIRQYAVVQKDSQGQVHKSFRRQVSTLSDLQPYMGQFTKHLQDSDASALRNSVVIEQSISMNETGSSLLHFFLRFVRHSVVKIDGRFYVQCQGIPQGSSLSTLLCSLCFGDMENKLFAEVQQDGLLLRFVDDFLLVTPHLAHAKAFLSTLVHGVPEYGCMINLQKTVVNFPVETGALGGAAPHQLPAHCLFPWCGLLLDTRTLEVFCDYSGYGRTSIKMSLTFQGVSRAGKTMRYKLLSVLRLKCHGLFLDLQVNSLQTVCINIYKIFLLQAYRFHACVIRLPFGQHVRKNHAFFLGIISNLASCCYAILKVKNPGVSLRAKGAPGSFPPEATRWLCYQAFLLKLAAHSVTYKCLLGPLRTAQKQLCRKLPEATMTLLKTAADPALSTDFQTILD

SMILES: COc1c(Br)cc(C(C)(c2cc(Br)c(OC)c(Br)c2)c2cc(Br)c(OC)c(Br)c2)cc1Br [Compound 70]
- telomerase activity (TRAP) (telomerase): increased expression in a dose-dependent fashion; also recorded: further increased telomerase activity and expression in granulosa cells as compared to compound 79
- TERT relative mRNA levels [1]: increased expression in a dose-dependent fashion
- expression of StAr [2]: increased expression of StAr
- ovary histology (follicles, granulosa cells) (mouse ovary; 6 mg/Kg single dose at met-estrus stage, 12 hours): more developed follicles (white arrow) and plurality of layers of granulosa cells (GC) around the oocytes
- ovary histology (corpus luteum) (mouse ovary; 6 mg/Kg single dose at pro-estrus and estrus stages, 12 hrs): more corpus luteum (CL) than in the control group
- CREM expression in testis (CREM): restored the expression of the spermatogenesis markers
- DNA damage (γ-H2AX) in testis (γ-H2AX; compound only, without irradiation): did not cause DNA damage
- expression levels of γ-H2AX in testis (γ-H2AX; irradiated mice (2.5 Gy)): a decrease in the expression levels of γ-H2AX
- sperm count (ICR mice; irradiated mice, 9 and 30 days post irradiation): increased sperm count at 9 and 30 days post irradiation
- sperm cells number from the epididymis (ICR mice; non-irradiated mice, 12 hrs post treatment, compared to DMSO): a significant increase
- number of defective sperm cells (head morphology) (sperm): reduction in the number of defective sperm cells
- sperm counts (old mice (16 months old)): increased
- sperm motility (old mice (16 months old)): increased
- ovarian tissue histopathology (H&E) (ovarian tissue): clearly rescues ovarian tissue exposed to radiation
- LH expression (LH): increased LH production above untreated levels
- FSH expression (FSH): decreased FSH expression relative to untreated samples
